One test relates to C6. In words: Resistance index, Ratio of IC50 for multidrug resistant Pgp expressing human LCC6 cells to IC50 for Pgp deficient human LCC6 cells. The class given is functional. Also on record: reference not given here.
A short description of test [1]: Cytotoxicity against multidrug resistant Pgp expressing human LCC6 cells after 72 hrs by sulforhodamine B test. It counts as functional, cell-based. To be noted: LCC-6, 72 h. (Sulforhodamine B stains cellular protein and so reports cell mass.)
The nature of test [2]: Cytotoxicity against Pgp deficient human LCC6 cells after 72 hrs by sulforhodamine B test. To be noted: C6, 72 h. The class given is functional, cell-based.
A short description of test [3]: Cytotoxicity against multidrug resistant Pgp expressing human NCI/ADR cells after 72 hrs by sulforhodamine B test. To be noted: NCI/ADR-RES. The class given is functional, cell-based.
The subject of another test is MCF7. In words: Cytotoxicity against Pgp deficient human MCF7 cells after 72 hrs by sulforhodamine B test. It counts as functional, cell-based. The following applies: MCF7, 72 h.

For `CC(=O)O[C@@]12CO[C@@H]1C[C@H](O)[C@@]1(C)C(=O)[C@H](OC(=O)c3ccccc3)C3=C(C)[C@@H](OC(=O)[C@H](O)[C@H](C=C(C)C)NC(=O)OC(C)(C)C)C[C@@](O)([C@@H](OC(=O)c4ccccc4)[C@H]21)C3(C)C`, the “Ratio IC50” value in the test on C6 turned out to be 2.7. Besides, the results for the IC50 in test [1] and in test [2] were 4.8 nM and 1.8 nM, respectively.
As to `C/C=C/[C@H](NC(=O)OC(C)(C)C)[C@@H](O)C(=O)O[C@H]1C[C@@]2(O)[C@@H](OC(=O)c3cccc(OC)c3)[C@@H]3[C@]4(OC(C)=O)CO[C@@H]4C[C@H](O)[C@@]3(C)C(=O)[C@H](OC(=O)CC)C(=C1C)C2(C)C`, in test [2], the IC50 was 1.2 nM.
Same read-out and setting: then `CCC(=O)O[C@H]1C(=O)[C@@]2(C)[C@H]([C@H](OC(=O)c3cccc(F)c3)[C@]3(O)C[C@H](OC(=O)[C@H](O)[C@H](C=C(C)C)NC(=O)OC(C)(C)C)C(C)=C1C3(C)C)[C@]1(OC(C)=O)CO[C@@H]1C[C@@H]2O`, with 0.5 nM.
`CCC(=O)O[C@H]1C(=O)[C@@]2(C)[C@H]([C@H](OC(=O)c3cccc(OC)c3)[C@]3(O)C[C@H](OC(=O)[C@H](O)[C@@H](NC(=O)OC(C)(C)C)[C@H]4CC4(C)C)C(C)=C1C3(C)C)[C@]1(OC(C)=O)CO[C@@H]1C[C@@H]2O`: the results for the IC50 (in test [3]; in the test on MCF7; in test [2]) were 1.5 nM, 0.6 nM and 0.48 nM, respectively.
For `CC(=O)O[C@@]12CO[C@@H]1C[C@H](O)[C@@]1(C)C(=O)[C@H](OC(=O)c3cccc4ccccc34)C3=C(C)[C@@H](OC(=O)[C@H](O)[C@H](C=C(C)C)NC(=O)OC(C)(C)C)C[C@@](O)([C@@H](OC(=O)c4ccccc4)[C@H]21)C3(C)C`, the “Ratio IC50” value in the test on C6 came to 2.9. Moreover, the IC50 in test [1] turned out to be 15.2 nM; in test [2] it was 5.3 nM.
The matching figures for `COc1cccc(C(=O)O[C@H]2[C@@H]3[C@]4(OC(C)=O)CO[C@@H]4C[C@H](O)[C@@]3(C)C(=O)[C@H](OC(=O)C3CC3)C3=C(C)[C@@H](OC(=O)[C@H](O)[C@H](C=C(C)C)NC(=O)OC(C)(C)C)C[C@]2(O)C3(C)C)c1`: 2.9, 2.9 nM and 1 nM.
Take `COc1ccccc1CC(=O)O[C@H]1C(=O)[C@@]2(C)[C@H]([C@H](OC(=O)c3ccccc3)[C@]3(O)C[C@H](OC(=O)[C@H](O)[C@H](C=C(C)C)NC(=O)OC(C)(C)C)C(C)=C1C3(C)C)[C@]1(OC(C)=O)CO[C@@H]1C[C@@H]2O`: in the test with C6, the “Ratio IC50” value is listed as 6. Besides, the figures for the IC50 in test [1] and in test [2] were 13.8 nM and 2.3 nM, respectively.
In the case of `C=CCC[C@H](NC(=O)OC(C)(C)C)[C@@H](O)C(=O)O[C@H]1C[C@@]2(O)[C@@H](OC(=O)c3cccc(OC)c3)[C@@H]3[C@]4(OC(C)=O)CO[C@@H]4C[C@H](O)[C@@]3(C)C(=O)[C@H](OC(=O)CC)C(=C1C)C2(C)C`, the figures for the IC50 (in test [3]; in the test on MCF7; in test [2]) were 7.7 nM, 2 nM and 0.9 nM, respectively.
Consider `COc1cccc(C(=O)O[C@H]2C(=O)[C@@]3(C)[C@H]([C@H](OC(=O)c4ccccc4)[C@]4(O)C[C@H](OC(=O)[C@H](O)[C@H](C=C(C)C)NC(=O)OC(C)(C)C)C(C)=C2C4(C)C)[C@]2(OC(C)=O)CO[C@@H]2C[C@@H]3O)c1`, for which, in the test with C6, the “Ratio IC50” value worked out at 1.8. Also, the 50% inhibitory concentration (IC50) was 5.1 nM in test [1] and 2.8 nM in test [2].
The matching figures for `COc1cccc(CC(=O)O[C@H]2C(=O)[C@@]3(C)[C@H]([C@H](OC(=O)c4ccccc4)[C@]4(O)C[C@H](OC(=O)[C@H](O)[C@H](C=C(C)C)NC(=O)OC(C)(C)C)C(C)=C2C4(C)C)[C@]2(OC(C)=O)CO[C@@H]2C[C@@H]3O)c1`: 9.7, 20.3 nM and 2.1 nM.
As for `CCC(=O)O[C@H]1C(=O)[C@@]2(C)[C@H]([C@H](OC(=O)c3cccc(F)c3)[C@]3(O)C[C@H](OC(=O)[C@H](O)[C@H](CC(C)C)NC(=O)OC(C)(C)C)C(C)=C1C3(C)C)[C@]1(OC(C)=O)CO[C@@H]1C[C@@H]2O`, in test [2], the concentration for half-maximal inhibition (IC50) was 0.4 nM.
As for `COc1ccc(C(=O)O[C@H]2C(=O)[C@@]3(C)[C@H]([C@H](OC(=O)c4ccccc4)[C@]4(O)C[C@H](OC(=O)[C@H](O)[C@H](C=C(C)C)NC(=O)OC(C)(C)C)C(C)=C2C4(C)C)[C@]2(OC(C)=O)CO[C@@H]2C[C@@H]3O)cc1`, the “Ratio IC50” value in the test on C6 is reported as 1.2. In addition, the IC50 in test [1] worked out at 4.7 nM; in test [2], 3.8 nM.
On the same counts, the results for `COc1ccc(CCC(=O)O[C@H]2C(=O)[C@@]3(C)[C@H]([C@H](OC(=O)c4ccccc4)[C@]4(O)C[C@H](OC(=O)[C@H](O)[C@H](C=C(C)C)NC(=O)OC(C)(C)C)C(C)=C2C4(C)C)[C@]2(OC(C)=O)CO[C@@H]2C[C@@H]3O)cc1` are 2.9, 4.9 nM and 1.7 nM.
With `C=Cc1cccc(C(=O)O[C@H]2[C@@H]3[C@]4(OC(C)=O)CO[C@@H]4C[C@H](O)[C@@]3(C)C(=O)[C@H](OC(=O)CC)C3=C(C)[C@@H](OC(=O)[C@H](O)[C@H](C=C(C)C)NC(=O)OC(C)(C)C)C[C@]2(O)C3(C)C)c1`, 2.9 nM corresponded to half-maximal inhibition in test [2] (IC50).
As for `CCC(=O)O[C@H]1C(=O)[C@@]2(C)[C@H]([C@H](OC(=O)c3cccc(N=[N+]=[N-])c3)[C@]3(O)C[C@H](OC(=O)[C@H](O)[C@H](CC(C)C)NC(=O)OC(C)(C)C)C(C)=C1C3(C)C)[C@]1(OC(C)=O)CO[C@@H]1C[C@@H]2O`, the IC50 came to 2.1 nM in test [3], 1 nM with MCF7 and 1.1 nM in test [2].
Regarding `CC(=O)O[C@@]12CO[C@@H]1C[C@H](O)[C@@]1(C)C(=O)[C@H](OC(=O)CCc3ccccc3)C3=C(C)[C@@H](OC(=O)[C@H](O)[C@H](C=C(C)C)NC(=O)OC(C)(C)C)C[C@@](O)([C@@H](OC(=O)c4ccccc4)[C@H]21)C3(C)C`, the “Ratio IC50” value with C6 is 6.1. The IC50 in test [1] was determined as 31.2 nM; in test [2], 5.1 nM.
`C=CC[C@H](NC(=O)OC(C)(C)C)[C@@H](O)C(=O)O[C@H]1C[C@@]2(O)[C@@H](OC(=O)c3cccc(OC)c3)[C@@H]3[C@]4(OC(C)=O)CO[C@@H]4C[C@H](O)[C@@]3(C)C(=O)[C@H](OC(=O)CC)C(=C1C)C2(C)C`: the values for the IC50 (in test [3]; in the test with MCF7; in test [2]) were 8.7 nM, 0.8 nM and 1.2 nM, respectively.
`CC(=O)O[C@@]12CO[C@@H]1C[C@H](O)[C@@]1(C)C(=O)[C@H](OC(=O)c3ccc4ccccc4c3)C3=C(C)[C@@H](OC(=O)[C@H](O)[C@H](C=C(C)C)NC(=O)OC(C)(C)C)C[C@@](O)([C@@H](OC(=O)c4ccccc4)[C@H]21)C3(C)C`: in the test with C6, the “Ratio IC50” value turned out to be 2.4. Besides, the IC50 is 15.2 nM in test [1] and 6.3 nM in test [2].
Regarding `COc1cccc(C(=O)O[C@H]2[C@@H]3[C@]4(OC(C)=O)CO[C@@H]4C[C@H](O)[C@@]3(C)C(=O)[C@H](OC(C)=O)C3=C(C)[C@@H](OC(=O)[C@H](O)[C@H](C=C(C)C)NC(=O)OC(C)(C)C)C[C@]2(O)C3(C)C)c1`, the IC50 was found to be 2.3 nM in test [3], 0.8 nM in the test on MCF7 and 0.6 nM in test [2].
On to `COc1ccccc1C(=O)O[C@H]1C(=O)[C@@]2(C)[C@H]([C@H](OC(=O)c3ccccc3)[C@]3(O)C[C@H](OC(=O)[C@H](O)[C@H](C=C(C)C)NC(=O)OC(C)(C)C)C(C)=C1C3(C)C)[C@]1(OC(C)=O)CO[C@@H]1C[C@@H]2O`, for which the “Ratio IC50” value in the test on C6 is 2.7. The IC50 in test [1] came out at 5.8 nM; in test [2], 2.1 nM.
The matching figures for `COc1cccc(CCC(=O)O[C@H]2C(=O)[C@@]3(C)[C@H]([C@H](OC(=O)c4ccccc4)[C@]4(O)C[C@H](OC(=O)[C@H](O)[C@H](C=C(C)C)NC(=O)OC(C)(C)C)C(C)=C2C4(C)C)[C@]2(OC(C)=O)CO[C@@H]2C[C@@H]3O)c1`: 1.8, 6.7 nM and 3.7 nM.
Take `CC(=O)O[C@@]12CO[C@@H]1C[C@H](O)[C@@]1(C)C(=O)[C@H](O)C3=C(C)[C@@H](OC(=O)[C@H](O)[C@@H](NC(=O)OC(C)(C)C)c4ccccc4)C[C@@](O)([C@@H](OC(=O)c4ccccc4)[C@H]21)C3(C)C.O.O.O` [DOCETAXEL]: the IC50 was 120 nM in test [1] and 1 nM in test [2].
In the case of `CC(=O)O[C@@]12CO[C@@H]1C[C@H](O)[C@@]1(C)C(=O)[C@H](OC(=O)OCc3ccccc3)C3=C(C)[C@@H](OC(=O)[C@H](O)[C@H](C=C(C)C)NC(=O)OC(C)(C)C)C[C@@](O)([C@@H](OC(=O)c4ccccc4)[C@H]21)C3(C)C`, the “Ratio IC50” value in the test with C6 was found to be 9.3. The results for the concentration for half-maximal inhibition (IC50) in test [1] and in test [2] were 16.7 nM and 1.8 nM, respectively.
As for `CCC(=O)O[C@H]1C(=O)[C@@]2(C)[C@H]([C@H](OC(=O)c3cccc(N=[N+]=[N-])c3)[C@]3(O)C[C@H](OC(=O)[C@H](O)[C@H](C=C(C)C)NC(=O)OC(C)(C)C)C(C)=C1C3(C)C)[C@]1(OC(C)=O)CO[C@@H]1C[C@@H]2O`, the IC50 turned out to be 1.1 nM in test [3], 0.9 nM with MCF7 and 0.9 nM in test [2].
As for `CC(=O)O[C@H]1C(=O)[C@@]2(C)[C@H]([C@H](OC(=O)c3cccc(C)c3)[C@]3(O)C[C@H](OC(=O)[C@H](O)[C@H](C=C(C)C)NC(=O)OC(C)(C)C)C(C)=C1C3(C)C)[C@]1(OC(C)=O)CO[C@@H]1C[C@@H]2O`, the IC50 amounted to 5 nM in test [3], 0.8 nM with MCF7 and 1.5 nM in test [2].
As for `CCC(=O)O[C@H]1C(=O)[C@@]2(C)[C@H]([C@H](OC(=O)c3cccc(Cl)c3)[C@]3(O)C[C@H](OC(=O)[C@H](O)[C@H](C=C(C)C)NC(=O)OC(C)(C)C)C(C)=C1C3(C)C)[C@]1(OC(C)=O)CO[C@@H]1C[C@@H]2O`, in test [2], half-maximal inhibition (IC50) was put at 0.8 nM.
As for `COc1ccccc1CCC(=O)O[C@H]1C(=O)[C@@]2(C)[C@H]([C@H](OC(=O)c3ccccc3)[C@]3(O)C[C@H](OC(=O)[C@H](O)[C@H](C=C(C)C)NC(=O)OC(C)(C)C)C(C)=C1C3(C)C)[C@]1(OC(C)=O)CO[C@@H]1C[C@@H]2O`, in the test with C6, the “Ratio IC50” value is reported as 3.3. Further, the IC50 was 5 nM in test [1] and 1.5 nM in test [2].

For orientation: IC50 means the concentration that gives 50% inhibition.
